A word on the IC50: it is the concentration that gives 50% inhibition.

For one data set, the system named is H460 cell lines. Kind of data set: In vitro cytotoxicity (AlamarBlue) with or without ABT-888, H460. The conditions noted are these: Homo sapiens. Format: cell-based. How it is done: (§1) The effect of the PARP inhibitor, ABT-888, on TH-302 activity was investigated in three human cancer cell lines: human non small cell lung H460, human melanoma A375, and human colorectal carcinoma HCT116.
(§2) Cells were pretreated with ABT-888 for 1 h under normoxia, and then co-incubated with TH-302 for additional 2 h under either normoxia or hypoxia. After 3 days of incubation in the presence of ABT-888, cell viability was determined using AlamarBlue. For the temozolomide (TMZ) group, cells were co-treated with temozolomide and ABT-888 for 3 days after 1 h pretreatment with ABT-888.
(In general: Resazurin is reduced to fluorescent resorufin, in cell work by metabolically active cells.)

The subject of data set [1] is multiple human cancer cell lines. Kind of data set: Hypoxia-enhanced cytotoxicity in vitro. In kind it is cell-based. The text has this: In these examples, pharmacological tools were utilized to test the underlying mechanisms of DNA repair processes involved in the cellular response to TH-302. In vitro cytotoxicity assays were used as the primary read-out.
The subject of another data set is AA8 cells. Kind of data set: Cytotoxicity in wild type AA8 cells, 2 h treatment, alamar blue (Table 8). Format: cell-based, chinese hamster. The conditions noted are these: for IC50: Cricetulus griseus. How it is done: (§3) The role of homology-directed DNA repair (HDR) on TH-302 was investigated in wild type and HDR deficient chinese hamster ovary (CHO) cells. […] TH-302 activity can be modulated by pharmacological modulators of both reductases and DNA damage and repair pathways. TH-302 activity can be inhibited by the flavin reductase inhibitor DPI. TH-302 activity was not affected by the PARP inhibitor ABT-888.
(§4) The wild type AA8 cells and the HDR impaired irs1SF and UV41 cells were treated with TH-302 for 2 h, washed, and then incubated for 3 days. At the end of the incubation, viable cells were quantified using alamar blue.

The next data set concerns EM9 cells. Put plainly: Cytotoxicity in EM9 cells deficient in base excision repair gene XRCC1 (Table 7). Format: cell-based. The conditions noted are these: for Fold difference in sensitivity (anoxia) / Fold difference in sensitivity (normoxia): AA8 versus EM9. The text has this: (§5) In contrast, the activity of the monoalkylating agent temozolomide was enhanced by ABT-888 in these cancer cell lines (see, Tables 1, 3, and 5).

A further data set has as its system UV41 cells. Put plainly: Cytotoxicity in HDR impaired UV41 cells, 2 h treatment, alamar blue (Table 8). Format: cell-based, chinese hamster. The conditions noted are these: for IC50: Cricetulus griseus. Here is the method:
as §3, §4

The next data set concerns A375 cell lines. Kind of data set: In vitro cytotoxicity (AlamarBlue) with or without ABT-888, A375. The conditions noted are these: Homo sapiens. In kind it is cell-based. Here is the method: as §1, §2
A further data set concerns HCT116 cell lines. Put plainly: In vitro cytotoxicity (AlamarBlue) with or without ABT-888, HCT116. The conditions noted are these: Homo sapiens. In kind it is cell-based. Here is the method:
as §1, §2

Data set [2] is described as follows: Modulation of TH-302 activity by the flavin reductase inhibitor DPI. Format: cell-based. The conditions noted are these: with DPI.
Excerpt: as §3

The subject of the next data set is AA8. Kind of data set: Cytotoxicity in AA8 cells (Table 7). In kind it is cell-based, chinese hamster. The conditions noted are these: Cricetulus griseus.
Excerpt: as §5

For the next data set, the system named is irs1SF cells. Put plainly: Cytotoxicity in HDR impaired irs1SF cells, 2 h treatment, alamar blue (Table 8). Format: cell-based, chinese hamster. The conditions noted are these: for IC50: Cricetulus griseus. Here is the method: as §3, §4
Where [3] appears, read: read-out: IC50 (μM) Normoxia EM9.
Where [4] appears, read: CHO-AA8, read-out: IC50 (μM) Anoxia AA8.
Setting [5] is: CHO-AA8, read-out: IC50 (μM) Normoxia AA8.

Like-named read-outs stand apart in the source and are kept apart here. Bounds are passed on as bounds.

`Cn1c(COP(=O)(NCCBr)NCCBr)cnc1[N+](=O)[O-]` [TH-302]: the IC50 was 0.2 µM with H460 cell lines (NCI-H460, read-out: IC50 (μM) Hypoxia); 47 µM in the data set with H460 cell lines (NCI-H460, read-out: IC50 (μM) Normoxia); 1.1 µM in the data set on AA8 cells (CHO-AA8, N2, read-out: IC50 (μM) N2); 340 µM with AA8 cells (CHO-AA8, air, read-out: IC50 (μM) Air); 14 µM with EM9 cells (read-out: IC50 (μM) Anoxia EM9); 760 µM in the data set on EM9 cells (setting [3]). Further, the 50% inhibitory concentration (IC50) was found to be 0.02 µM in the data set on UV41 cells (N2, read-out: IC50 (μM) N2); 16 µM with UV41 cells (air, read-out: IC50 (μM) Air); 1.5 µM in the data set with A375 cell lines (A-375, read-out: IC50 (μM) Hypoxia); 230 µM in the data set on A375 cell lines (A-375, read-out: IC50 (μM) Normoxia); 0.1 µM with HCT116 cell lines (HCT-116, read-out: IC50 (μM) Hypoxia); 61 µM in the data set on HCT116 cell lines (HCT-116, read-out: IC50 (μM) Normoxia). In addition, the IC50 is 10 µM in the data set on AA8 (setting [4]); more than 1000 µM in the data set with AA8 (setting [5]); 0.5 µM in the data set with irs1SF cells (N2, read-out: IC50 (μM) N2); 95 µM in the data set on irs1SF cells (air, read-out: IC50 (μM) Air). The hypoxia-enhanced cytotoxicity entry in [1] was “about 400 fold”. Besides, the HCR in the data set on AA8 cells (ratio air/N2) came to 310; in the data set on UV41 cells (ratio air/N2), 800; with irs1SF cells (ratio air/N2), 190. Further, in the data set with EM9 cells, the “Fold difference in sensitivity (anoxia)” value turned out to be 1 fold. In the data set with EM9 cells (normoxia), the “Fold difference in sensitivity (normoxia)” value is more than 1.3 fold. Moreover, the “TH-302 activity in the presence of the flavin reductase inhibitor DPI” value in data set [2] is listed as “inhibited”.
Regarding `Cn1nnc2c(C(N)=O)ncn2c1=O` [Temozolomide, temozolomide, reference compound], the half-maximal inhibitory concentration (IC50) in the data set on H460 cell lines (NCI-H460, H460, normoxia, 3 days co-treatment after 1 h ABT-888 pretreatment, read-out: IC50 (μM), Normoxia) was 540 µM; in the data set with EM9 cells (EM9, normoxia, read-out: IC50 (μM) Normoxia EM9) it was 168 µM; in the data set with A375 cell lines (A-375, A375, normoxia, 3 days co-treatment after 1 h ABT-888 pretreatment, read-out: IC50 (μM), Normoxia) it was 510 µM; in the data set with HCT116 cell lines (HCT-116, HCT116, normoxia, 3 days co-treatment after 1 h ABT-888 pretreatment, read-out: IC50 (μM), Normoxia), 890 µM; in the data set with AA8 (CHO-AA8, AA8, normoxia, read-out: IC50 (μM) Normoxia AA8), more than 1000 µM. In the data set with EM9 cells (normoxia), the “Fold difference in sensitivity (normoxia)” value is given as more than 5.9 fold.
For the compound `Nc1n[n+]([O-])c2ccccc2[n+]1[O-]` [Tirapazamine, tirapazamine], in the data set with EM9 cells, the “Fold difference in sensitivity (anoxia)” value came out at 3 fold. For the same compound, the IC50 in the data set on EM9 cells (read-out: IC50 (μM) Anoxia EM9) is 15 µM; in the data set on EM9 cells (setting [3]), more than 1000 µM; with AA8 (setting [4]), 50 µM; in the data set with AA8 (setting [5]) it was more than 1000 µM.

For the origin of these results see US20140171389A1, “METHODS FOR TREATING CANCER” (THRESHOLD PHARMACEUTICALS, INC., priority 2011, published 2014).
